pIC50: −log10 of the molar value.
Legend:
[1] = molecular target: T1, Matrix metalloproteinase-14 (Homo sapiens, UniProt P50281); experiment: Inhibition of human recombinant MMP14
[2] = molecular target: T2, Matrix metalloproteinase-9 (Homo sapiens, UniProt P14780); experiment: Ratio of IC50 of drug to CGS 27023A for human recombinant MMP9
A549 [3] = experiment: Antiproliferative activity against A549 cells after 72 hrs by MTT assay; format: functional, cell-based; conditions: Homo sapiens, A549, 72 h
[4] = Antiproliferative activity against Tsu-Pr1 cells after 72 hrs in folate depleted media; format: functional, cell-based; conditions: Homo sapiens, TSU-Pr1, 72 h
A549 [5] = experiment: Antiproliferative activity against A549 cells after 72 hrs in folate depleted media; format: functional, cell-based; conditions: Homo sapiens, A549, 72 h
[6] = molecular target: T1, Matrix metalloproteinase-14; experiment: Ratio of IC50 of drug to CGS 27023A for human recombinant MMP14
[7] = molecular target: T3, 72 kDa type IV collagenase (Homo sapiens, UniProt P08253); experiment: Inhibition of human recombinant MMP2
Target sequence in this assay (P08253 whole entry): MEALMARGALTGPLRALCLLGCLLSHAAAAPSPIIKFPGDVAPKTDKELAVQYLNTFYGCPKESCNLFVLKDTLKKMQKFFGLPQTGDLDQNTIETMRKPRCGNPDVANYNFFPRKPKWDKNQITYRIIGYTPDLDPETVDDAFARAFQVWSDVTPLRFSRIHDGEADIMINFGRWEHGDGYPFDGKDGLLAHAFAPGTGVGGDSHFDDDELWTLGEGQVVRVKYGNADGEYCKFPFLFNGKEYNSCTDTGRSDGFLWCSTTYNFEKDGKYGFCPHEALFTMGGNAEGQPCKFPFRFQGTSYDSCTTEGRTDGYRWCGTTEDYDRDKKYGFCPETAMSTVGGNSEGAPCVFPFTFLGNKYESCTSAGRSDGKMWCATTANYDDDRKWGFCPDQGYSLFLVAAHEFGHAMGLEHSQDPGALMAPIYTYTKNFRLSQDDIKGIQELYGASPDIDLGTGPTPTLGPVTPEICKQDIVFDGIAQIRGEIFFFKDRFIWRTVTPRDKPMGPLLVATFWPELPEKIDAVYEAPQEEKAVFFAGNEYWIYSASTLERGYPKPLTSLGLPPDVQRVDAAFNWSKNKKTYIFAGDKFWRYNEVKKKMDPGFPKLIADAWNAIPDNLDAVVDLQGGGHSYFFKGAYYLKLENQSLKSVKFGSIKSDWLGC

Dihydrofolate reductase [8] = molecular target: T4, Dihydrofolate reductase (Homo sapiens, UniProt P00374)
T4 sequence (P00374 whole entry): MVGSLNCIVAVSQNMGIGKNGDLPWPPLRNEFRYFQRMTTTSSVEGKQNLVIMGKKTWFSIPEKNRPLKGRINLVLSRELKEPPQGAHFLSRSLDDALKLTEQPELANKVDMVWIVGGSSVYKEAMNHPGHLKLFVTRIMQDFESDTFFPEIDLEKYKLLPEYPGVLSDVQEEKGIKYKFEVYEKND
Description: Inhibition of DHFR using dihydrofolic acid substrate

[9] = molecular target: T3, 72 kDa type IV collagenase; experiment: Ratio of IC50 of drug to CGS 27023A for human recombinant MMP2
Target sequence in this assay (P08253 110-660 limits assumed): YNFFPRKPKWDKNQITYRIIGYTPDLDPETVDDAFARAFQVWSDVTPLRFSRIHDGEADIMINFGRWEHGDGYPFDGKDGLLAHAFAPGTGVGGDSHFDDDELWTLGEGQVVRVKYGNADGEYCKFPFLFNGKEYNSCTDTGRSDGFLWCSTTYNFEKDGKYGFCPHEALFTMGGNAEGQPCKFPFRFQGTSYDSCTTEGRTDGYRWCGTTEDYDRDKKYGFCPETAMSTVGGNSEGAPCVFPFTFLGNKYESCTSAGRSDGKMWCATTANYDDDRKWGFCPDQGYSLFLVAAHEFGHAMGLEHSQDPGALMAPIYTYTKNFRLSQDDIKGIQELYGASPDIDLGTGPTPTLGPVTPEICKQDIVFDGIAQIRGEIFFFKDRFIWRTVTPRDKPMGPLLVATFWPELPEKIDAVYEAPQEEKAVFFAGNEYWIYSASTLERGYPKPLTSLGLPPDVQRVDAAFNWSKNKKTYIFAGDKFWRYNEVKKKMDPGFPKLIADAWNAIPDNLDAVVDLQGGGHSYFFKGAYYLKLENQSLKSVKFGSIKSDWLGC

PPC-1 [10] = experiment: Antiproliferative activity against PPC1 cells after 72 hrs in folate depleted media; format: functional, cell-based; conditions: Homo sapiens, PPC-1, 72 h
[11] = molecular target: T2, Matrix metalloproteinase-9; experiment: Inhibition of human recombinant MMP9
Matrilysin = molecular target: T5, Matrilysin (Homo sapiens, UniProt P09237); experiment: Inhibition of human recombinant MMP7
T5 sequence (P09237 whole entry): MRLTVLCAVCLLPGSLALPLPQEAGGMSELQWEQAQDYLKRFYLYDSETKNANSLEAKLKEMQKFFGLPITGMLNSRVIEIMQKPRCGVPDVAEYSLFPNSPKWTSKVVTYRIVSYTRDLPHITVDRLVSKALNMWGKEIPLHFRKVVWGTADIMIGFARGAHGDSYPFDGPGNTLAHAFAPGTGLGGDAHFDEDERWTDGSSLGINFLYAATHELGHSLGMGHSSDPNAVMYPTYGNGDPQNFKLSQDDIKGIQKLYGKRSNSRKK

PPC-1 [12] = experiment: Antiproliferative activity against PPC1 cells after 72 hrs by MTT assay; format: functional, cell-based; conditions: Homo sapiens, PPC-1, 72 h
[13] = Antiproliferative activity against Tsu-Pr1 cells after 72 hrs by MTT assay; format: functional, cell-based; conditions: Homo sapiens, TSU-Pr1, 72 h
Dihydrofolate reductase [14] = molecular target: T4, Dihydrofolate reductase; remark: listed apart in the source
Description: Inhibition of DHFR using folic acid substrate

[15] = molecular target: T6, Matrilysin (Homo sapiens) (UniProt P09237); experiment: Ratio of IC50 of drug to CGS 27023A for human recombinant MMP7
T6 sequence (whole entry): T5 sequence (P09237 whole entry)

[16] = molecular target: T2, Matrix metalloproteinase-9; experiment: Inhibition of human recombinant MMP9 at 100 uM
[17] = molecular target: T1, Matrix metalloproteinase-14; experiment: Inhibition of human recombinant MMP14 at 100 uM
[18] = molecular target: T3, 72 kDa type IV collagenase; experiment: Inhibition of human recombinant MMP2 at 100 uM
Target sequence in this assay (P08253 110-660 limits assumed): as the sequence (P08253 110-660 limits assumed) above

[19] = molecular target: T6, Matrilysin (Homo sapiens); experiment: Inhibition of human recombinant MMP7 at 100 uM

T2 sequence (P14780 whole entry): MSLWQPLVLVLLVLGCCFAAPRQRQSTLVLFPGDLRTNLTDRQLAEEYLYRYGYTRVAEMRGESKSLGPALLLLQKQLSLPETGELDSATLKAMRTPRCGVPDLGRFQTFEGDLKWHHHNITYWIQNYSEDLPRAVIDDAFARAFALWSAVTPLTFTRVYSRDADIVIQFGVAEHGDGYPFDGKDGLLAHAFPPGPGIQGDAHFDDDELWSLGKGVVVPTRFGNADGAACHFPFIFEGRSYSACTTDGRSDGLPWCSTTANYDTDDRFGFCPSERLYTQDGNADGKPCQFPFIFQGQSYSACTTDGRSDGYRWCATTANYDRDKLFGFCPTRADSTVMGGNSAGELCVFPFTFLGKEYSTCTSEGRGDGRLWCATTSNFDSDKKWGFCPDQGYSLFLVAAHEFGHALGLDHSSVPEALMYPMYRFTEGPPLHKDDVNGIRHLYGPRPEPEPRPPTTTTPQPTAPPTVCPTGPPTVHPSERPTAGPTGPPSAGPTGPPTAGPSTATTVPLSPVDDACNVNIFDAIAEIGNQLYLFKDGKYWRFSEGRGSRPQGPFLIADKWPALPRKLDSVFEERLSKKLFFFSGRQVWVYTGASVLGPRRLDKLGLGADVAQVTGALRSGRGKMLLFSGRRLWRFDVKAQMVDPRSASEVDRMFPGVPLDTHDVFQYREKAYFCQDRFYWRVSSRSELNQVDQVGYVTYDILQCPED

Row | Structure (SMILES) | pIC50 [1] | Ratio IC50 [2] | pIC50 (A549 [3]) | pIC50 [4] | pIC50 (A549 [5]) | Ratio IC50 [6] | pIC50 [7] | pIC50 (Dihydrofolate reductase [8]) | Ratio IC50 [9] | pIC50 (PPC-1 [10]) | pIC50 [11] | pIC50 (Matrilysin) | pIC50 (PPC-1 [12]) | pIC50 [13] | pIC50 (Dihydrofolate reductase [14]) | Ratio IC50 [15] | inhibition [16] | inhibition [17] | inhibition [18] | inhibition [19]
1 | COc1ccc(S(=O)(=O)N(Cc2cccnc2)[C@@H](C(=O)NO)C(C)C)cc1 [CGS-27023A] | 7.64 |  |  |  |  |  |  |  |  |  |  |  |  |  |  |  |  |  |  | 
2 | CN(Cc1cnc2nc(N)nc(N)c2n1)c1ccc(C(=O)N[C@@H](CCC(=O)N[C@@H](Cc2ccccc2)C(=O)NO)C(=O)O)cc1 | 4.15 | 3000 | 5.19 | 6.92 | 6.30 | 3040 | 4.22 | 6.77 | 2500 | 6.30 | 4.82 | 4.36 | 5.32 | 5.70 | 6.60 | 440 |  |  |  | 
3 | CN(Cc1cnc2nc(N)nc(N)c2n1)c1ccc(C(=O)N[C@@H](CCC(=O)O)C(=O)O)cc1 [METHOTREXATE] |  |  | 7.00 | 8.10 | 7.70 |  |  |  |  | 8.00 |  |  | 7.00 | 7.00 |  |  |  |  |  | 
4 | CN(Cc1cnc2nc(N)nc(N)c2n1)c1ccc(C(=O)N[C@@H](CCC(=O)N2CCC[C@H]2C(=O)NO)C(=O)O)cc1 |  |  | 5.12 | 7.00 | 6.30 |  |  | 6.92 |  | 6.70 |  |  | 5.74 | 5.64 | 6.89 |  | 61% | 47% | 56% | 43%
5 | CN(Cc1cnc2nc(N)nc(N)c2n1)c1ccc(C(=O)N[C@@H](CCC(=O)NO)C(=O)O)cc1 |  |  | 5.22 | 8.00 | 7.00 |  |  | 7.15 |  | 7.30 |  | 4.00 | 5.70 | 5.70 | 6.77 |  | 61% | 48% | 67% | 
6 | Nc1nc2ncc(CNc3ccc(C(=O)N[C@@H](CCC(=O)N[C@@H](Cc4ccccc4)C(=O)NO)C(=O)O)cc3)nc2c(=O)[nH]1 | 4.10 | 4400 | 3.96 |  |  | 3480 | 4.19 |  | 2710 |  | 4.66 | 4.82 | 4.15 | 3.82 |  | 150 |  |  |  | 
7 | Nc1nc2ncc(CNc3ccc(C(=O)N[C@@H](CCC(=O)NO)C(=O)O)cc3)nc2c(=O)[nH]1 |  |  | 4.00 |  |  |  |  |  |  |  |  |  | 4.10 | 3.92 |  |  | 55% | 42% | 66% | 53%
8 | NC1=NC(=O)C2N=C(CNc3ccc(C(=O)N[C@@H](CCC(=O)N4CCC[C@H]4C(=O)NO)C(=O)O)cc3)C=NC2=N1 (stereo not given in full) |  |  | 3.89 |  |  |  |  |  |  |  |  |  | 3.92 | 4.10 |  |  |  |  | 58% | 54%
